Laboratory results: patent US20040254173A1, “Modulation of dopamine responses with substituted (S)-2,3-benzodiazepines” (priority 2003, published 2004)

Tested on: apomorphine-induced hypothermia, stereotypies and climbing
Assay: Low Dose Apomorphine Test in the mouse
Type: in vivo
Conditions: for STEREOTYPY (intensity score), 20 min after apomorphine, mean ± s.e.m. / STEREOTYPY (intensity score), 50 min after apomorphine, mean ± s.e.m.: 4 point scale (0-3); for CLIMBING (No. of mice), 20 minutes after apomorphine / CLIMBING (No. of mice), 50 minutes after apomorphine: 6 mice per group; for Rectal Temperature, 30 min after apomorphine, mean ± s.e.m. / Rectal Temperature, 60 min after apomorphine, mean ± s.e.m. / Rectal Temperature, before apomorphine, mean ± s.e.m. / effect on apomorphine-induced hypothermia: mouse; for Rectal Temperature, 30 min after apomorphine, mean change from control / Rectal Temperature, 60 min after apomorphine, mean change from control / STEREOTYPY (intensity score), 20 min after apomorphine, mean change from control / STEREOTYPY (intensity score), 50 min after apomorphine, mean change from control: vs vehicle
Description: Racemic tofisopam, (R)-tofisopam and (S)-tofisopam were investigated in the Low Dose Apomorphine Test in the mouse to evaluate their pro- or anti-dopaminergic activity following intraperitoneal (i.p.) administration of apomorphine. Apomorphine, at a low dose, induces hypothermia, stereotypies and climbing. All three of these symptoms are potentiated by dopaminergic agonists and antagonized by dopamine antagonists, such as classical neuroleptics. The Low Dose Apomorphine Test, thus serves to detect pro- or antidopaminergic activity. The test was performed according to the protocols described by Chermat and Poncelet. See, Chermat R., Poncelet M., “Antagonisme des redressements, des stéréotypies et de l'hypotheimie induits par 1 ou 16 mg.kg-1 d'apomorphine,” J. Pharmacol., 14, 93-97, 1983.
Male mice of Rj: NMRI strain, 23-26 g body weight range were supplied by Elevage Janvier, 53940 Le Genest-Saint-Isle, France. The animals were delivered to the laboratory at least 3 days before the experiment and, upon arrival, were housed 10 per cage in macrolon cages (25×19×13 cm) containing wood shavings (Litalabo-SPPS, 95100 Argenteuil, France) with free access to food (UAR 113-UAR, 91360 Epinay-sur-Orge, France) and tap water (i.e. non-fasted) until tested. The animal house was maintained under artificial lighting (12 hours) between 7.00 and 19.00 in a controlled ambient temperature of 21±1° C., and relative humidity maintained at 40-70%.
The different treatments were equally distributed between the animals. During the experiment, each animal within a cage received the same treatment. Animals within a cage were individually marked on the tail with an indelible pen.
The experiment was conducted blind with treatment vials labeled A, B, C etc., according to a standardized coding procedure. The evaluation of the different treatments was balanced over time by testing successive series of individual animals from each treatment group in a fixed rotation (A, B, C, etc.). Animals were sacrificed at the end of the experiment by exposure to CO2.
Three compounds, racemic tofisopam, (R)-tofisopam and (S)-tofisopam were tested in the Low Dose Apomorphine Test. Each of these three compounds was dosed as a dispersion in 0.2% hydroxypropylmethylcellulose (HPMC) (Sigma), in sterile physiological saline (Laboratoire Aguettant).
Two reference standards were also dosed. Bromocriptine, methanesulfonate (Sigma), a known dopamine agonist, and haloperidol (Sigma), a known dopamine antagonist, were dispersed in 0.2% HPMC in sterile physiological saline.
Apomorphine hydrochloride, the dopamine mimetic employed in the assay, was dissolved in water for injectable preparation (Laboratoire Aguettant). Dosing: All of the dosed substances were administered in a volume of 10 ml/kg. The doses are expressed in mg/kg of supplied substance.
6 mice were studied per group. The test was performed blind.
Racemic tofisopam, (R)-tofisopam and (S)-tofisopam were administered at doses of 16, 32 and 64 mg/kg, administered intraperitonealy (i.p.), 30 minutes prior to administration of apomorphine.
The rectal temperature of the mice was measured prior to apomorphine dosing using a rectal probe (Physitemp Instruments Digital Laboratory Thermometer Model BAT-12). The mice were then placed in individual Plexiglas cages (10×6×4 cm) attached with the opening against a vertical wire grid.
The mice were then injected subcutaneously (s.c.) with apomorphine (1 mg/kg). Rectal temperature was measured 30 and 60 minutes after the injection of apomorphine.
The intensity of stereotypies (sniffing, licking, gnawing), were scored at 20 minutes and 50 minutes after injection of apomorphine on a 4 point scale (0-3). The presence (1) or absence (0) of climbing against the wire grid wall, were also assessed 20 and 50 minutes after injection of apomorphine.
The reference standards bromocriptine (16 mg/kg) and haloperidol (0.5 mg/kg), were administered under the same experimental conditions.

[1] = 16 mg/kg i.p. 30 min before apomorphine 1 mg/kg s.c.
[2] = 16 mg/kg i.p., 30 min after test substance
[3] = 32 mg/kg i.p. 30 min before apomorphine 1 mg/kg s.c.
[4] = 32 mg/kg i.p., 30 min after test substance
[5] = 64 mg/kg i.p. 30 min before apomorphine 1 mg/kg s.c.
[6] = 64 mg/kg i.p., 30 min after test substance
[7] = 0.5 mg/kg, before apomorphine 1 mg/kg s.c.

| Molecule | STEREOTYPY (intensity score), 20 min after apomorphine, mean ± s.e.m. [1] | STEREOTYPY (intensity score), 50 min after apomorphine, mean ± s.e.m. [1] | CLIMBING (No. of mice), 20 minutes after apomorphine [1] | CLIMBING (No. of mice), 50 minutes after apomorphine [1] | Rectal Temperature, 30 min after apomorphine, mean ± s.e.m. [1] | Rectal Temperature, 60 min after apomorphine, mean ± s.e.m. [1] | Rectal Temperature, 30 min after apomorphine, mean change from control [1] | Rectal Temperature, 60 min after apomorphine, mean change from control [1] | STEREOTYPY (intensity score), 20 min after apomorphine, mean change from control [1] | STEREOTYPY (intensity score), 50 min after apomorphine, mean change from control [1] | Rectal Temperature, before apomorphine, mean ± s.e.m. [2] | STEREOTYPY (intensity score), 20 min after apomorphine, mean ± s.e.m. [3] | STEREOTYPY (intensity score), 50 min after apomorphine, mean ± s.e.m. [3] | CLIMBING (No. of mice), 20 minutes after apomorphine [3] | CLIMBING (No. of mice), 50 minutes after apomorphine [3] | Rectal Temperature, 30 min after apomorphine, mean ± s.e.m. [3] | Rectal Temperature, 60 min after apomorphine, mean ± s.e.m. [3] | Rectal Temperature, 30 min after apomorphine, mean change from control [3] | Rectal Temperature, 60 min after apomorphine, mean change from control [3] | STEREOTYPY (intensity score), 20 min after apomorphine, mean change from control [3] | other results |
| --- | --- | --- | --- | --- | --- | --- | --- | --- | --- | --- | --- | --- | --- | --- | --- | --- | --- | --- | --- | --- | --- |
| CC[C@H]1C(C)=NN=C(c2ccc(OC)c(OC)c2)c2cc(OC)c(OC)cc21 [(R)-tofisopam, (R)-1-(3,4-dimethoxyphenyl)-4-methyl-5-ethyl-7,8-dimethoxy-5H-2,3-benzodiazepine] | 2.8 ± 0.2 | 1.0 ± 0.3 | 6 No. of mice | 5 No. of mice | 35.1 ± 0.3 °C | 36.9 ± 0.2 °C | 0.0 °C | +0.2 °C | +0.6 | 0.0 | 37.3 ± 0.1 °C | 2.2 ± 0.2 | 1.0 ± 0.3 | 6 No. of mice | 4 No. of mice | 34.6 ± 0.4 °C | 36.6 ± 0.2 °C | −0.5 °C | −0.1 °C | 0.0 | STEREOTYPY (intensity score), 50 min after apomorphine, mean change from control [3]: 0.0; Rectal Temperature, before apomorphine, mean ± s.e.m. [4]: 37.1 ± 0.1 °C; STEREOTYPY (intensity score), 20 min after apomorphine, mean ± s.e.m. [5]: 1.5 ± 0.6; STEREOTYPY (intensity score), 50 min after apomorphine, mean ± s.e.m. [5]: 1.2 ± 0.3; CLIMBING (No. of mice), 20 minutes after apomorphine [5]: 3 No. of mice; CLIMBING (No. of mice), 50 minutes after apomorphine [5]: 2 No. of mice; Rectal Temperature, 30 min after apomorphine, mean ± s.e.m. [5]: 35.1 ± 0.4 °C; Rectal Temperature, 60 min after apomorphine, mean ± s.e.m. [5]: 36.5 ± 0.4 °C; Rectal Temperature, 30 min after apomorphine, mean change from control [5]: 0.0 °C; Rectal Temperature, 60 min after apomorphine, mean change from control [5]: −0.2 °C; STEREOTYPY (intensity score), 20 min after apomorphine, mean change from control [5]: −0.7; STEREOTYPY (intensity score), 50 min after apomorphine, mean change from control [5]: +0.2; Rectal Temperature, before apomorphine, mean ± s.e.m. [6]: 37.2 ± 0.1 °C; effect on apomorphine-induced hypothermia (16, 32 and 64 mg/kg i.p.): did not affect; effect on apomorphine-induced hypothermia, stereotypies or climbing (dose-range tested (16, 32, 64 mg/kg i.p.)): did not affect |
| Bromocriptine, methanesulfonate | 2.7 ± 0.2 | 1.0 ± 0.4 | 6 No. of mice | 2 No. of mice | 34.4 ± 0.4 °C | 35.0 ± 0.5 °C | −0.7 °C | −1.7 °C | +0.5 | 0.0 | 37.2 ± 0.2 °C | – | – | – | – | – | – | – | – | – | effect on apomorphine-induced stereotypies or climbing (16 mg/kg): did not significantly affect; effect on apomorphine-induced hypothermia (16 mg/kg): significantly potentiated |
| CC[C@@H]1C(C)=NN=C(c2ccc(OC)c(OC)c2)c2cc(OC)c(OC)cc21 [(S)-tofisopam, (S)-1-(3,4-dimethoxyphenyl)-4-methyl-5-ethyl-7,8-dimethoxy-5H-2,3-benzodiazepine] | 3.0 ± 0.0 | 0.7 ± 0.2 | 6 No. of mice | 3 No. of mice | 34.8 ± 0.4 °C | 37.2 ± 0.2 °C | −0.3 °C | +0.5 °C | +0.8 | −0.3 | 37.2 ± 0.3 °C | 2.3 ± 0.3 | 0.3 ± 0.2 | 6 No. of mice | 2 No. of mice | 34.4 ± 0.3 °C | 36.6 ± 0.2 °C | −0.7 °C | −0.1 °C | +0.1 | behaviour on apomorphine-induced hypothermia (rectal temperature) (16 mg/kg, sixty minutes after apomorphine, slight but statistically significant elevation in temperature): weak dopamine antagonist; behaviour on apomorphine-induced stereotypies (16 mg/kg, twenty minute time point): strong dopamine agonist; STEREOTYPY (intensity score), 50 min after apomorphine, mean change from control [3]: −0.7; Rectal Temperature, before apomorphine, mean ± s.e.m. [4]: 37.0 ± 0.2 °C; STEREOTYPY (intensity score), 20 min after apomorphine, mean ± s.e.m. [5]: 0.2 ± 0.2; STEREOTYPY (intensity score), 50 min after apomorphine, mean ± s.e.m. [5]: 0.2 ± 0.2; CLIMBING (No. of mice), 20 minutes after apomorphine [5]: 0+ No. of mice; CLIMBING (No. of mice), 50 minutes after apomorphine [5]: 0 No. of mice; Rectal Temperature, 30 min after apomorphine, mean ± s.e.m. [5]: 33.6 ± 0.7 °C; Rectal Temperature, 60 min after apomorphine, mean ± s.e.m. [5]: 33.3 ± 1.0 °C; Rectal Temperature, 30 min after apomorphine, mean change from control [5]: −1.5 °C; Rectal Temperature, 60 min after apomorphine, mean change from control [5]: −3.4 °C; STEREOTYPY (intensity score), 20 min after apomorphine, mean change from control [5]: −2.0; STEREOTYPY (intensity score), 50 min after apomorphine, mean change from control [5]: −0.8; Rectal Temperature, before apomorphine, mean ± s.e.m. [6]: 37.2 ± 0.2 °C; behaviour on apomorphine-induced stereotypies and climbing (64 mg/kg, twenty and fifty minute time points): strong dopamine antagonist; behaviour on apomorphine-induced hypothermia (rectal temperature) (higher doses (32, 64 mg/kg), thirty and sixty minute time points, lowering the rectal temperature): dopamine antagonism |
| O=C(CCCN1CCC(O)(c2ccc(Cl)cc2)CC1)c1ccc(F)cc1 [Haloperidol, haloperidol] | – | – | – | – | – | – | – | – | – | – | – | – | – | – | – | – | – | – | – | – | effect on apomorphine-induced stereotypies and climbing as well as hypothermia (0.5 mg/kg): significantly antagonized; STEREOTYPY (intensity score), 20 min after apomorphine, mean ± s.e.m. [7]: 0.0 ± 0.0; STEREOTYPY (intensity score), 50 min after apomorphine, mean ± s.e.m. [7]: 0.0 ± 0.0; CLIMBING (No. of mice), 20 minutes after apomorphine [7]: 0+ No. of mice; CLIMBING (No. of mice), 50 minutes after apomorphine [7]: 1 No. of mice; Rectal Temperature, 30 min after apomorphine, mean ± s.e.m. [7]: 37.0 ± 0.1 °C; Rectal Temperature, 60 min after apomorphine, mean ± s.e.m. [7]: 37.7 ± 0.1 °C; Rectal Temperature, 30 min after apomorphine, mean change from control [7]: +1.9 °C; Rectal Temperature, 60 min after apomorphine, mean change from control [7]: +1.0 °C; STEREOTYPY (intensity score), 20 min after apomorphine, mean change from control [7]: −2.2; STEREOTYPY (intensity score), 50 min after apomorphine, mean change from control [7]: −1.0; Rectal Temperature, before apomorphine, mean ± s.e.m. (0.5 mg/kg): 37.3 ± 0.1 °C; effect on apomorphine-induced hypothermia (0.5 mg/kg): significantly antagonized |
